Assay results published in patent publication US20260184663A1, “INDENE COMPOUNDS, PHARMACEUTICAL COMPOSITIONS THEREOF, AND THEIR THERAPEUTIC APPLICATIONS” (NucMito Pharmaceuticals co. Ltd., priority 2022, published 2026).
Like-named read-outs stand apart in the source and are kept apart here.

Assays:
Assay type in all cases: cell-based
[1] = test system: MDA-MB-231 (breast cancer); assay: Antiproliferative activity (CCK-8 cell viability), MDA-MB-231; conditions: Homo sapiens, 72 h, read-out: Antiproliferative activity in cancerous cells, MDA-MB-231 (inhibition of cell growth); for inhibition at 3.3 µM: Compound concentration: 3.3 μM; for inhibition at 10 µM: Compound concentration: 10 μM
In short: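 In this CCK-8 viability assay, MDA-MB-231 cells maintained in Dulbecco's modified Eagle's medium containing 10% fetal bovine serum were placed in 96-well plates (2,000-5,000 cells/well) and treated with compound for 72 h at 37° C. A 4 h incubation with 10 μL CCK-8 followed, plates were read at 450 nm, and viability was expressed against DMSO vehicle wells across replicates.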

[2] = test system: A431 (epidermoid carcinoma); assay: Antiproliferative activity (CCK-8 cell viability), A431; conditions: Homo sapiens, 72 h, read-out: Antiproliferative activity in cancerous cells, A431 (inhibition of cell growth); for inhibition at 3.3 µM: A-431, Compound concentration: 3.3 μM; for inhibition at 10 µM: A-431, Compound concentration: 10 μM
In short: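 Cell viability of compound-treated A431 cells was measured with a Cell Counting Kit-8. Each well received 10 μL of CCK-8 after 72 h of compound exposure, followed by 4 h incubation at 37° C. and a 450 nm plate-reader measurement. Percent viability was calculated relative to DMSO controls across replicates.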

[3] = test system: HepG2 (liver cancer); assay: Antiproliferative activity (CCK-8 cell viability), HepG2; conditions: Homo sapiens, 72 h, read-out: Antiproliferative activity in cancerous cells, HepG2 (inhibition of cell growth); for inhibition at 3.3 µM: Compound concentration: 3.3 μM; for inhibition at 10 µM: Compound concentration: 10 μM
In short: (§1)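 Cells were seeded at 2,000-5,000/well (HeLa in MEM, HepG2 and SW480 in DMEM, A549 in F-12K, all with 10% FBS) and treated with compound at 3.3, 10 or 30 μM for 72 h at 37° C. CCK-8 was added for 4 h, absorbance was read at 450 nm, and viability was expressed relative to DMSO-treated wells.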

[4] = test system: HeLa (cervical cancer); assay: Antiproliferative activity (CCK-8 cell viability), HeLa; conditions: Homo sapiens, 72 h; for inhibition at 3.3 µM: Compound concentration: 3.3 μM; for inhibition at 10 µM: Compound concentration: 10 μM; for inhibition at 30 µM: Compound concentration: 30 μM
In short: as §1

[5] = test system: A549 (lung adenocarcinoma); assay: Antiproliferative activity (CCK-8 cell viability), A549; conditions: Homo sapiens, 72 h, read-out: Antiproliferative activity in cancerous cells, A549 (inhibition of cell growth); for inhibition at 3.3 µM: Compound concentration: 3.3 μM; for inhibition at 10 µM: Compound concentration: 10 μM
In short: as §1

[6] = test system: SW480 (colon cancer); assay: Antiproliferative activity (CCK-8 cell viability), SW480; conditions: Homo sapiens, 72 h; for inhibition at 3.3 µM: Compound concentration: 3.3 μM; for inhibition at 10 µM: Compound concentration: 10 μM; for inhibition at 30 µM: Compound concentration: 30 μM
In short: as §1

[7] = test system: B16F10 (malignant melanoma); assay: Antiproliferative activity (CCK-8 cell viability), B16F10; conditions: Mus musculus, 72 h, read-out: Antiproliferative activity in cancerous cells, B16F10 (inhibition of cell growth); for inhibition at 3.3 µM: B16-F10, Compound concentration: 3.3 μM; for inhibition at 10 µM: B16-F10, Compound concentration: 10 μM
In short: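 Attached B16F10 cells in 96-well plates were incubated with compound at 37° C for 72 h, followed by 10 μL CCK-8 reagent per well and a further 4 h incubation. A multi-well plate reader measured absorbance at 450 nm. Percent viability across replicates was calculated against DMSO vehicle-treated cells.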

[8] = test system: alpha-smooth muscle actin (α-SMA); assay: Inhibition of TGF-β induced expression of alpha-smooth muscle actin (α-SMA) in CFSC cells (western blot); conditions: compound at 10 μM, TGF-β (10 ng/mL), 24 hours, band intensity vs TGF-β only
In short: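 CFSC hepatic stellate cells in serum-free DMEM treated 24 h at 37 °C with compound at 10 μM plus TGF-β (10 ng/mL). α-SMA measured by Western blot with β-actin, ECL detection, densitometry. Percent inhibition is decrease in band intensity versus TGF-β-only cells.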

[9] = read-out: Antiproliferative activity in cancerous cells, HELA (inhibition of cell growth)
[10] = read-out: Antiproliferative activity in cancerous cells, SW480 (inhibition of cell growth)

Row | SMILES | inhibition at 3.3 µM [1] | inhibition at 10 µM [1] | inhibition at 3.3 µM [2] | inhibition at 10 µM [2] | inhibition at 3.3 µM [3] | inhibition at 10 µM [3] | inhibition at 3.3 µM [4, 9] | inhibition at 10 µM [4, 9] | inhibition at 3.3 µM [5] | inhibition at 10 µM [5] | inhibition at 3.3 µM [6, 10] | inhibition at 10 µM [6, 10] | inhibition at 3.3 µM [7] | inhibition at 10 µM [7] | inhibition at 10 µM [8] | also measured
1 | CC1=C(CC(=O)O)c2ccc(F)c(F)c2/C1=C\c1ccc(Oc2ccc(F)cc2)cc1 [C10, (Z)-2-(6,7-Difluoro-1-(4-(4-fluorophenoxy)benzylidene)-2-methyl-1H-inden-3-yl)acetic acid] | 30 to 50% | ≥ 50% | < 30% | ≥ 50% | 30 to 50% | 30 to 50% | ≥ 50% | ≥ 50% | < 30% | 30 to 50% | < 30% | ≥ 50% | 30 to 50% | ≥ 50% | > 80% | –
2 | CCCC1=C(CC(=O)O)c2cc(F)ccc2/C1=C\c1ccc(COc2ccccc2)cc1 [A4, (Z)-2-(5-Fluoro-1-(4-(phenoxymethyl)benzylidene)-2-propyl-1H-inden-3-yl)-acetic acid] | ≥ 50% | ≥ 50% | < 30% | ≥ 50% | 30 to 50% | ≥ 50% | ≥ 50% | ≥ 50% | 30 to 50% | ≥ 50% | < 30% | 30 to 50% | 30 to 50% | ≥ 50% | 50 to 80% | –
3 | COc1ccc(/C=C2/C(Cc3ccc(Oc4ccc(F)cc4)cc3)=C(CC(=O)O)c3cc(F)ccc32)cc1 [A110, (Z)-2-(5-Fluoro-2-(4-(4-fluorophenoxy)benzyl)-1-(4-methoxybenzylidene)-1H-inden-3-yl)acetic acid] | ≥ 50% | ≥ 50% | < 30% | ≥ 50% | < 30% | < 30% | < 30% | ≥ 50% | < 30% | ≥ 50% | < 30% | ≥ 50% | < 30% | ≥ 50% | > 80% | –
4 | CC1=C(CC(=O)O)c2ccc(F)c(F)c2/C1=C\c1cccc(Oc2ccccc2)c1 [C23, (Z)-2-(6,7-Difluoro-2-methyl-1-(3-phenoxybenzylidene)-1H-inden-3-yl)acetic acid] | ≥ 50% | ≥ 50% | < 30% | < 30% | < 30% | < 30% | 30 to 50% | ≥ 50% | < 30% | < 30% | < 30% | < 30% | 30 to 50% | ≥ 50% | < 30% | –
5 | CC1=C(C(C)C(=O)O)c2ccccc2/C1=C\c1ccc(Oc2ccc(F)cc2)cc1 (stereo not drawn) [C29, (Z)-2-(1-(4-(4-Fluorophenoxy)benzylidene)-2-methyl-1H-inden-3-yl)propanoic acid] | 30 to 50% | ≥ 50% | < 30% | ≥ 50% | < 30% | ≥ 50% | ≥ 50% | ≥ 50% | < 30% | 30 to 50% | 30 to 50% | 30 to 50% | 30 to 50% | ≥ 50% | 50 to 80% | –
6 | O=C(O)CC1=C(Cc2ccc(F)cc2)/C(=C/c2ccc(Oc3ccc(F)cc3)cc2)c2ccc(F)cc21 [C14, (Z)-2-(5-Fluoro-2-(4-fluorobenzyl)-1-(4-(4-fluorophenoxy)benzylidene)-1H-inden-3-yl)acetic acid] | ≥ 50% | ≥ 50% | ≥ 50% | ≥ 50% | ≥ 50% | ≥ 50% | ≥ 50% | ≥ 50% | < 30% | ≥ 50% | < 30% | ≥ 50% | ≥ 50% | ≥ 50% | > 80% | –
7 | CC1=C(CC(=O)O)c2ccc(F)cc2/C1=C\c1ccc(Oc2ccc(F)cc2)cc1 [C3, (Z)-2-(6-Fluoro-1-(4-(4-fluorophenoxy)benzylidene)-2-methyl-1H-inden-3-yl)-acetic acid] | < 30% | 30 to 50% | ≥ 50% | ≥ 50% | ≥ 50% | ≥ 50% | < 30% | < 30% | 30 to 50% | 30 to 50% | < 30% | < 30% | < 30% | 30 to 50% | < 30% | inhibition at 30 µM ([4]; read-out: Antiproliferative activity in cancerous cells, HELA): < 30%; inhibition at 30 µM ([6]; read-out: Antiproliferative activity in cancerous cells, SW480): < 30%
8 | CC1=C(CC(=O)O)c2cc(F)ccc2/C1=C/c1cccc(COc2ccc(F)cc2F)c1 [E6, (E)-2-(1-(3-((2,4-Difluorophenoxy)methyl)benzylidene)-5-fluoro-2-methyl-1H-inden-3-yl)acetic acid] | 30 to 50% | 30 to 50% | < 30% | 30 to 50% | < 30% | < 30% | < 30% | < 30% | < 30% | < 30% | < 30% | 30 to 50% | < 30% | 30 to 50% | > 80% | inhibition at 30 µM ([1]; Compound concentration: 30 μM): ≥ 50%; inhibition at 30 µM ([2]; A-431, Compound concentration: 30 μM): ≥ 50%; inhibition at 30 µM ([3]; Compound concentration: 30 μM): ≥ 50%; inhibition at 30 µM [4, 9]: ≥ 50%; inhibition at 30 µM ([5]; Compound concentration: 30 μM): ≥ 50%; inhibition at 30 µM [6, 10]: ≥ 50%; inhibition at 30 µM ([7]; B16-F10, Compound concentration: 30 μM): ≥ 50%
